According to patent US20260184675A1, “CHIRAL ISOMERIC SULFITE COMPOUND AND APPLICATION THEREOF” (Chengdu Hanova BioSciences Co., Ltd, priority 2024, published 2026):

Tests used:
[1] = system: pest eggs of Tetranychus cinnabarinus; assay: Effect on hatching of pest eggs of Tetranychus cinnabarinus, leaf disc method; format: in vivo; conditions: for Hatching rate (%): 7 days after insecticide delivery
In short: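 Adult female mites laid eggs on 2.0 cm Vicia faba leaf discs for up to 36 h; discs with counted eggs were dipped 10 s in compound solution or water, then kept moist. Hatched eggs were counted 7 days after treatment and control effect was calculated by formula.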

[2] = system: eggs of Harmonia axyridis; assay: Effect on hatching of eggs of Harmonia axyridis, egg card immersion; format: in vivo; conditions: 100 ppm; for Number of hatched larvae 4 days after insecticide delivery, Replicate 1 / Number of hatched larvae 4 days after insecticide delivery, Replicate 2 / Number of hatched larvae 4 days after insecticide delivery, Replicate 3: Harmonia axyridis egg cards, immersed 30 seconds; for Hatching rate (%), Replicate 1 / Hatching rate (%), Replicate 2 / Hatching rate (%), Replicate 3: Harmonia axyridis eggs, 4 days after delivery
In short: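 Egg cards (~20 eggs each) dipped 30 s in 100 ppm insecticide, air dried and kept moist at 27° C; 5 cards per treatment, 3 replicates. Hatching assessed 4 days after treatment against pre-treatment egg counts, and control effect calculated by formula.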

[3] = system: eggs of Panonychus citri; assay: Effect on hatching of eggs of Panonychus citri, leaf disc method; format: in vivo; conditions: 1 ppm; for Hatching rate (%), Replicate 1 / Hatching rate (%), Replicate 2 / Hatching rate (%), Replicate 3 / Number of hatched larvae 5 days after insecticide delivery, Replicate 1 / Number of hatched larvae 5 days after insecticide delivery, Replicate 2 / Number of hatched larvae 5 days after insecticide delivery, Replicate 3: Panonychus citri eggs; for Hatching rate (%), Replicate 1 / Hatching rate (%), Replicate 2 / Hatching rate (%), Replicate 3: 5 days after delivery; for Number of hatched larvae 5 days after insecticide delivery, Replicate 1 / Number of hatched larvae 5 days after insecticide delivery, Replicate 2 / Number of hatched larvae 5 days after insecticide delivery, Replicate 3: leaf disc
[4] = system: Magnaporthe grisea; format: cell-based; conditions: 100 ppm; for Average antifungal rate (%) / Antifungal rate of Magnaporthe grisea (%), Replicate 1 / Antifungal rate of Magnaporthe grisea (%), Replicate 2 / Antifungal rate of Magnaporthe grisea (%), Replicate 3: 96-well plate; for Average antifungal rate (%): average of 3 replicates

| Structure (SMILES) | Hatching rate (%) ([1]; 0.25 mg/L, Replicate 1) | Hatching rate (%) ([1]; 0.25 mg/L, Replicate 2) | Number of hatched larvae 7 days after insecticide delivery ([1]; 0.25 mg/L, Replicate 1) | Number of hatched larvae 7 days after insecticide delivery ([1]; 0.25 mg/L, Replicate 2) | Hatching rate (%) ([1]; 0.5 mg/L, Replicate 1) | Hatching rate (%) ([1]; 0.5 mg/L, Replicate 2) | Number of hatched larvae 7 days after insecticide delivery ([1]; 0.5 mg/L, Replicate 1) | Number of hatched larvae 7 days after insecticide delivery ([1]; 0.5 mg/L, Replicate 2) | Hatching rate (%) ([1]; 1 mg/L, Replicate 1) | Hatching rate (%) ([1]; 1 mg/L, Replicate 2) | Number of hatched larvae 7 days after insecticide delivery ([1]; 1 mg/L, Replicate 1) | Number of hatched larvae 7 days after insecticide delivery ([1]; 1 mg/L, Replicate 2) | inhibitory rate against Magnaporthe grisea (in words) [4] | Average antifungal rate (%) [4] | Antifungal rate of Magnaporthe grisea (%), Replicate 1 [4] | Antifungal rate of Magnaporthe grisea (%), Replicate 2 [4] | Antifungal rate of Magnaporthe grisea (%), Replicate 3 [4] | other results |
| --- | --- | --- | --- | --- | --- | --- | --- | --- | --- | --- | --- | --- | --- | --- | --- | --- | --- | --- |
| CC(COc1ccc(Cl)cc1Cl)OS(=O)OCCF [1′-(S,S)] | 64.58% | 69.57% | 17 | 14 | 27.59% | 12.00% | 42 | 66 | 16.36% | 14.63% | 46 | 35 | strong inhibitory rate | 81.44% | 84.82% | 83.06% | 76.44% | Number of hatched larvae 4 days after insecticide delivery, Replicate 1 ([2]; listed as 1′-(S, S)): 18; Number of hatched larvae 4 days after insecticide delivery, Replicate 2 ([2]; listed as 1′-(S, S)): 19; Number of hatched larvae 4 days after insecticide delivery, Replicate 3 ([2]; listed as 1′-(S, S)): 21; Hatching rate (%), Replicate 1 ([2]; listed as 1′-(S, S)): 19.57%; Hatching rate (%), Replicate 2 ([2]; listed as 1′-(S, S)): 19.39%; Hatching rate (%), Replicate 3 ([2]; listed as 1′-(S, S)): 18.69%; Hatching rate (%), Replicate 1 ([3]; listed as 1′-(S, S)): 14.73%; Hatching rate (%), Replicate 2 ([3]; listed as 1′-(S, S)): 16.05%; Hatching rate (%), Replicate 3 ([3]; listed as 1′-(S, S)): 16.67%; Number of hatched larvae 5 days after insecticide delivery, Replicate 1 ([3]; listed as 1′-(S, S)): 19; Number of hatched larvae 5 days after insecticide delivery, Replicate 2 ([3]; listed as 1′-(S, S)): 13; Number of hatched larvae 5 days after insecticide delivery, Replicate 3 ([3]; listed as 1′-(S, S)): 18 |
| CC[C@H](COc1ccc(Cl)cc1Cl)OS(=O)OCCF (stereo partly drawn) [19-(R,S)] | 39.68% | 41.38% | 38 | 34 | 2.08% | 3.57% | 47 | 54 | 0.00% | 0.00% | 59 | 67 | strong inhibitory rate | 100.04% | 99.73% | 100.15% | 100.24% | inhibitory effect on the hatching of pest eggs of Tetranychus cinnabarinus (in words) ([1]; 1 ppm): excellent inhibitory effects; inhibitory activity on the hatching of eggs of Harmonia axyridis (in words) [2]: strong inhibitory activities; Number of hatched larvae 4 days after insecticide delivery, Replicate 1 [2]: 0; Number of hatched larvae 4 days after insecticide delivery, Replicate 2 [2]: 0; Number of hatched larvae 4 days after insecticide delivery, Replicate 3 [2]: 0; Hatching rate (%), Replicate 1 [2]: 0.00%; Hatching rate (%), Replicate 2 [2]: 0.00%; Hatching rate (%), Replicate 3 [2]: 0.00%; inhibitory effect on the hatching of eggs of Panonychus citri (in words) [3]: good inhibitory effects; Hatching rate (%), Replicate 1 [3]: 0.00%; Hatching rate (%), Replicate 2 [3]: 0.00%; Hatching rate (%), Replicate 3 [3]: 0.00%; Number of hatched larvae 5 days after insecticide delivery, Replicate 1 [3]: 0; Number of hatched larvae 5 days after insecticide delivery, Replicate 2 [3]: 0; Number of hatched larvae 5 days after insecticide delivery, Replicate 3 [3]: 0 |
